Test results reported in patent US7396655B2, “Method for enhancing activity of luciferase with fluorescence activity” (Chisso Corporation, priority 2005, dated 2008).
“Also recorded” adds a separate entry of the source. Like-named read-outs stand apart in the source and are kept apart here.

Columns and labels:
[1] = target: T1, Renilla reniformis luciferase (recombinant, N-terminal histidine tag) (Renilla reniformis, UniProt P27652); assay: Effect of imidazole on Renilla reniformis luciferase luminescence (control, FIG. 5); format: biochemical; conditions: increasing concentrations of imidazole (0.1 to 1000 mM), pH 8.0, coelenterazine substrate
T1 sequence (P27652 1-311): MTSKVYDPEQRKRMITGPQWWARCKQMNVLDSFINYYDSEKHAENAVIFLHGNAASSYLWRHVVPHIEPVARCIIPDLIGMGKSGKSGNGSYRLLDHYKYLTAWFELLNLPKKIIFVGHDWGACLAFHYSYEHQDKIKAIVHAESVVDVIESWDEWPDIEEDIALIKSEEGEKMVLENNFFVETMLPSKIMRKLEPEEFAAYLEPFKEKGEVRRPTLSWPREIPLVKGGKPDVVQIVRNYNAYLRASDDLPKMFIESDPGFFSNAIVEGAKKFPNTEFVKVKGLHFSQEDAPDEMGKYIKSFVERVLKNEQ
Method: (§1) 50 mM Tris-HCl (pH 8.0) containing imidazole at various concentrations (0. 1, 0.3, 1, 3, 10, 30, 60, 100, 150, 200, 250, 300, 400, 500, 600, 700, 800, 900, and 1000 mM) was prepared and pre-warmed at 25° C. The substrate coelenterazine (1 μg) was added to each imidazole-containing solution (200 μl).
(§2) As a control experiment, the same experiment was conducted using Renilla reniformis luciferase, which contains coelenterazine as luminescent substrate.

[2] = target: T2, BFP-aq, luciferase with fluorescence activity derived from aequorin (recombinant apoaequorin, SEQ ID NO: 1 with N-terminal Val replaced by Ala-Asn-Ser); complex (Aequorea victoria, UniProt P02592); assay: Light-emitting reaction rate of BFP-aq, Lineweaver-Burk plot (Table 6); format: biochemical; conditions: with or without 150 mM imidazole
T2 construct: The recombinant apoaequorins encoded by piP-HE is composed of 191 amino acids, whose N-terminus starts from Ala-Asn-Ser-; made in house; host or cells: E. coli strain WA802 (expression vector piP-HE)
T2 sequence (P02592 with tags, fused parts or gaps): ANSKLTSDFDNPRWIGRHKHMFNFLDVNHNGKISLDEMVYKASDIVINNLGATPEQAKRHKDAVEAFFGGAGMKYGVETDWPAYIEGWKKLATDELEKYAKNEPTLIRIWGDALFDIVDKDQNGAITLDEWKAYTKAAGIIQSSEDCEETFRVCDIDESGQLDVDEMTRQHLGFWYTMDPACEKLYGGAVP

[3] = target: T3, Renilla reniformis luciferase (Renilla reniformis, UniProt P27652); assay: Control experiment: Renilla reniformis luciferase luminescence with imidazole; format: biochemical; conditions: increasing concentrations of imidazole
T3 construct: histidine tag (N); made in house; host or cells: E. coli Top10
T3 sequence (P27652 1-311): T1 sequence (P27652 1-311)
Method: Renilla reniformis luciferase, a monomeric luciferase (36 kDa) derived from Renilla reniformis, catalyzes oxidation of the substrate coelenterazine to trigger light emission.
50 mM Tris-HCl buffer (200 μl), pH 7.6, was pre-warmed at 25° C., to which the substrate coelenterazine (1 μg/μl) dissolved in ethanol was added. A light-emitting reaction was triggered by adding Renilla reniformis luciferase (1.2 μg). […] The measured values were represented as the maximum intensity (Imax) of luminescence activity.
As a control experiment, the same experiment was conducted using Renilla reniformis luciferase, which contains coelenterazine as luminescent substrate. […] That is, it was shown that the enhancing effect on luminescence activity by the addition of imidazole is specific for BFP-aq.

[4] = target: T2, BFP-aq, luciferase with fluorescence activity derived from aequorin (recombinant apoaequorin, SEQ ID NO: 1 with N-terminal Val replaced by Ala-Asn-Ser); complex; assay: Optimal imidazole concentration for enhancing BFP-aq luminescence (FIG. 5); format: biochemical; conditions: pH 8.0, 25° C., coelenterazine substrate; compared with no imidazole
Method: 50 mM Tris-HCl (pH 8.0) containing imidazole at various concentrations (0. 1, 0.3, 1, 3, 10, 30, 60, 100, 150, 200, 250, 300, 400, 500, 600, 700, 800, 900, and 1000 mM) was prepared and pre-warmed at 25° C. The substrate coelenterazine (1 μg) was added to each imidazole-containing solution (200 μl). […] Assuming that the maximum intensity activity (Imax) of BFP-aq luminescence activity in 50 mM Tris-HCl (pH 8.0) is 100%, the relative luminescence activity values are shown in FIG. 5.

[5] = target: T4, BFP-aq (Aequorea victoria, UniProt P07164); conditions: with vs without 150 mM imidazole
Method: Then, luminescence activity was measured with the luminometer Luminescencer-PSN AB2200 (manufactured by Atto Co., Ltd.) for 60 seconds. Using the luminescence activity for the first 3 sec of the light-emitting reaction as the initial reaction rate, Km values were determined by the Lineweaver-Burk plot method.

[6] = target: T4, BFP-aq; assay: biochemical; format: biochemical; design: The recombinant apoaequorins encoded by piP-HE is composed of 191 amino acids, whose N-terminus starts from Ala-Asn-Ser-; made in house; host or cells: E. coli strain WA802
Method: Solutions of 50 mM Tris-HCl (pH 8.0), each containing various commercial organic compounds shown in Table 3, were prepared and pre-warmed at 25° C. The substrate coelenterazine (1 μg) was added to the solutions (200 μl) containing each of these compounds.

[7] = target: T4, BFP-aq; format: biochemical; design: The recombinant apoaequorins encoded by piP-HE is composed of 191 amino acids, whose N-terminus starts from Ala-Asn-Ser-; made in house; host or cells: E. coli strain WA802; conditions: pH 8.0
Method: as §1, §2

[8] = target: T2, BFP-aq, luciferase with fluorescence activity derived from aequorin (recombinant apoaequorin, SEQ ID NO: 1 with N-terminal Val replaced by Ala-Asn-Ser); complex; assay: Luminescence of BFP-aq with coelenterazine and analogs, with/without imidazole (Table 5); format: biochemical; conditions: without imidazole; pH 8.0; coelenterazine without imidazole = 100%
Method: 200 μl of this solution was placed in five vessels, to each of which 1 μg of the substrate coelenterazine (CTZ) and its four analogs: h-CTZ, cp-CTZ, hcp-CTZ, f-CTZ were added. […] Assuming that the maximum intensity activity (Imax) and initial velocity of BFP-aq luminescence activity in 50 mM Tris-HCl (pH 8.0) was 100%, the effect of the addition of imidazole on luminescence activity was examined.

[9] = pH 8, read-out: Luminescence activity (%) Imax
[10] = pH 8, read-out: Luminescence activity (%) Initial velocity

c1c[nH]cn1 [Imidazole]
Luminescence activity of Renilla reniformis luciferase with imidazole, in words [1]: remarkably inhibited with increasing concentrations of imidazole
Km change with imidazole, in words [2]: no marked changes were found in the Km values
Vmax change with imidazole, in words [2]: only Vmax was doubled in the system with imidazole
Effect on luminescence activity of Renilla reniformis luciferase [3]: remarkably inhibited
Luminescence activity of BFP-aq with imidazole, in words [4]: enhanced at 30 to 250 mM imidazole; also recorded: more than two-fold of the luminescence activity
Change of Km values [5]: no marked changes
Change of Vmax [5]: doubled
activity at 30000 µM [6, 9]: 148%
activity at 150000 µM [6, 9]: 199%
activity at 30000 µM [6, 10]: 153%
activity at 150000 µM [6, 10]: 205%
Enhancement of BFP-aq luminescence activity (Imax), in words ([6]; pH 8.0, Table 4 comparison): marked luminescence activity (Imax) occurs only when 150 mM imidazole was added
Luminescence activity compared with the system without imidazole ([7]; 150 mM imidazole): more than two-fold
Effect on luminescence activity of BFP-aq ([7]; 30 to 250 mM imidazole): enhanced

O=c1c(Cc2ccc(O)cc2)nc2c(CC3CCCC3)[nH]c(-c3ccc(O)cc3)cn1-2 [cp-Coelenterazine, cp-coelenterazine]
Relative luminescence activity, Imax [8]: 54%
